Measurements as given in ChEMBL document CHEMBL1201862, “PubChem BioAssay data set” (2004).
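How tested: cells in 96-well plates exposed to compound for 48 hours at five concentrations. GI50 marks 50% less growth.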 Calls of active or inactive are those of the source. Cut-off read from the data, not from the text of the source: active = GI50 up to about 1.1 µM and inactive = higher.

Columns and labels:
Assay in all cases: DTP human tumour cell line panel, 48 h
786-0 = test system: 786-0
A498 = test system: A498
HCT-116 = test system: HCT-116
HCT-15 = test system: HCT-15
HL-60 = test system: HL-60
HOP-62 = test system: HOP-62
M14 = test system: M14
MOLT-4 = test system: MOLT-4
NCI-H226 = test system: NCI-H226
NCI-H460 = test system: NCI-H460
SF-295 = test system: SF-295
SK-MEL-28 = test system: SK-MEL-28
SK-MEL-2 = test system: SK-MEL-2
TK-10 = test system: TK-10
COLO 205 = test system: COLO 205
LOX IMVI = test system: LOX IMVI

Measured: GI50

CCCC12Cc3c(OC)ccc(OC)c3CC(Cc3c(OC)ccc(OC)c31)C2=O (stereo not given)
inactive: 786-0 > 100 µM | A498 > 100 µM | HCT-116 10.8 µM | HL-60 7.21 µM | HOP-62 > 100 µM | M14 > 100 µM | MOLT-4 7.36 µM | NCI-H226 24.8 µM | NCI-H460 > 100 µM | SF-295 > 100 µM | SK-MEL-28 > 100 µM | SK-MEL-2 > 100 µM | TK-10 > 100 µM
> 100 µM: HCT-15

COC1(OC)C2(Cl)C(Cl)=C(Cl)C1(Cl)C1C2C2CC1(C(=O)O)c1ccccc12 (stereo not given)
23.8 µM: HCT-15
inactive: 786-0 16.4 µM | A498 81.1 µM | COLO 205 23.9 µM | HCT-116 17.5 µM | HL-60 22.1 µM | HOP-62 23.4 µM | LOX IMVI 16.7 µM | M14 17.9 µM | MOLT-4 13.6 µM | NCI-H226 26.2 µM | NCI-H460 20.7 µM | SF-295 25.4 µM | SK-MEL-28 19.4 µM | TK-10 29.1 µM

CCCCc1c2c(nc3c1CCc1cc4cc5c(nc4nc1-3)-c1nc3c(c(CCCC)c1CC5)CCCC3)CCCC2
33.2 µM: HCT-15
inactive: 786-0 23.6 µM | COLO 205 35.4 µM | HCT-116 34.5 µM | HL-60 42.1 µM | HOP-62 37.9 µM | LOX IMVI 41.9 µM | M14 53.1 µM | MOLT-4 35.2 µM | NCI-H226 19.4 µM | NCI-H460 47.1 µM | SF-295 15.7 µM | SK-MEL-28 69.5 µM | TK-10 26.9 µM

COc1cc(Nc2nc3ccc(C(F)(F)F)cc3nc2-c2ccccc2)cc(OC)c1OC
4.41 µM: HCT-15
inactive: 786-0 31 µM | A498 24.5 µM | COLO 205 > 10 µM | HOP-62 > 100 µM | LOX IMVI 4.32 µM | M14 9.93 µM | MOLT-4 8.41 µM | NCI-H226 7.66 µM | NCI-H460 4.82 µM | SF-295 3.05 µM | SK-MEL-28 40.8 µM | SK-MEL-2 21.9 µM | TK-10 > 100 µM

C=C1c2[nH]c3c([N+](=O)[O-])c(OC)ccc3c2CCN1C(C)=O
> 100 µM: HCT-15
inactive: 786-0 > 100 µM | A498 > 100 µM | COLO 205 > 100 µM | HCT-116 > 100 µM | HL-60 > 100 µM | HOP-62 > 100 µM | LOX IMVI > 100 µM | M14 > 100 µM | MOLT-4 > 100 µM | NCI-H226 > 100 µM | NCI-H460 > 100 µM | SF-295 > 100 µM | SK-MEL-28 > 100 µM | SK-MEL-2 > 100 µM | TK-10 > 100 µM

CC(C)CC(=O)NS(=O)(=O)c1ccccc1
> 100 µM: HCT-15
inactive: 786-0 > 100 µM | A498 > 100 µM | COLO 205 > 100 µM | HCT-116 > 100 µM | HL-60 > 100 µM | HOP-62 > 100 µM | LOX IMVI > 100 µM | M14 > 100 µM | MOLT-4 > 100 µM | NCI-H226 > 100 µM | NCI-H460 > 100 µM | SF-295 > 100 µM | SK-MEL-28 > 100 µM | SK-MEL-2 > 100 µM | TK-10 > 100 µM

COc1ccc(C2=NN(C(=O)COc3ccc(Cl)cc3)C(O)(c3ccc(Cl)cc3)C2)cc1 (stereo not given)
> 100 µM: HCT-15
inactive: 786-0 > 100 µM | COLO 205 > 100 µM | HCT-116 > 100 µM | HL-60 > 100 µM | HOP-62 > 100 µM | LOX IMVI > 100 µM | M14 > 100 µM | MOLT-4 > 100 µM | NCI-H226 > 100 µM | NCI-H460 > 100 µM | SF-295 > 100 µM | SK-MEL-28 > 100 µM | SK-MEL-2 > 100 µM | TK-10 > 100 µM

COc1ccc(/C=N/Nc2nc(-c3cc4oc(=O)n(C)c4cc3Cl)cs2)cc1OC
6.65 µM: HCT-15
inactive: 786-0 33.4 µM | COLO 205 81.8 µM | HCT-116 9.04 µM | HL-60 15.7 µM | HOP-62 36.2 µM | LOX IMVI 28.6 µM | M14 78.5 µM | MOLT-4 9.75 µM | NCI-H460 20.7 µM | SF-295 9.23 µM | SK-MEL-28 > 100 µM | SK-MEL-2 53.1 µM | TK-10 36.7 µM

COc1ccc2c(c1OC)C1=C(C2=O)c2cc3c(cc2CCN1)OCO3
inactive: 786-0 31.9 µM | A498 55.8 µM | COLO 205 4.08 µM | HCT-116 32.8 µM | HL-60 19.2 µM | HOP-62 48.6 µM | LOX IMVI 24.8 µM | M14 37.3 µM | MOLT-4 21.6 µM | NCI-H226 2.9 µM | NCI-H460 32.4 µM | SF-295 33.5 µM | SK-MEL-28 42.7 µM | SK-MEL-2 29 µM | TK-10 54.1 µM
29.4 µM: HCT-15

Cc1ccc(S(=O)(=O)N/N=C(/CC(=O)c2c(C)[n+]([O-])c3ccccc3[n+]2[O-])C(=O)Nc2ccccc2C)cc1
inactive: 786-0 > 100 µM | A498 > 100 µM | COLO 205 > 100 µM | HCT-116 > 100 µM | HOP-62 > 100 µM | M14 > 100 µM | NCI-H226 > 100 µM | NCI-H460 > 100 µM | SF-295 > 100 µM | SK-MEL-28 > 100 µM | SK-MEL-2 > 100 µM
> 100 µM: HCT-15

N=C(N)NCCCC(Nc1c2ccccc2nc2ccccc12)C(=O)O (stereo not given)
> 100 µM: HCT-15
inactive: 786-0 > 100 µM | COLO 205 > 100 µM | HCT-116 > 100 µM | HL-60 26.5 µM | LOX IMVI > 100 µM | M14 > 100 µM | MOLT-4 86.7 µM | NCI-H226 > 100 µM | NCI-H460 > 100 µM | SF-295 > 100 µM | SK-MEL-28 > 100 µM | SK-MEL-2 > 100 µM | TK-10 53.7 µM

CCOc1cc[n+]([C-](C#N)C#N)cc1
inactive: 786-0 > 100 µM | A498 > 100 µM | COLO 205 > 100 µM | HCT-116 > 100 µM | HL-60 > 100 µM | HOP-62 > 100 µM | LOX IMVI > 100 µM | M14 > 100 µM | MOLT-4 > 100 µM | NCI-H226 > 100 µM | NCI-H460 > 100 µM | SF-295 > 100 µM | TK-10 > 100 µM
> 100 µM: HCT-15

O=C1Cc2c([nH]c3ccccc23)-c2ccccc2N1 [PAULLONE]
30.9 µM: HCT-15
inactive: 786-0 75.3 µM | A498 67.8 µM | COLO 205 22 µM | HCT-116 16.7 µM | HL-60 15.4 µM | HOP-62 33.7 µM | LOX IMVI 16.5 µM | M14 42.5 µM | MOLT-4 17.1 µM | NCI-H226 27.8 µM | NCI-H460 34.7 µM | SF-295 37.8 µM | SK-MEL-28 48.8 µM | SK-MEL-2 43.3 µM | TK-10 > 100 µM

O=C(NNc1ccccc1)/C(=C/c1ccc2c(c1)OCO2)NC(=O)c1ccccc1
> 100 µM: HCT-15
inactive: 786-0 > 100 µM | A498 > 100 µM | COLO 205 40.1 µM | HCT-116 > 100 µM | HL-60 > 100 µM | HOP-62 > 100 µM | LOX IMVI 41.6 µM | M14 > 100 µM | MOLT-4 55 µM | NCI-H226 96.2 µM | NCI-H460 > 100 µM | SF-295 > 100 µM | SK-MEL-28 > 100 µM | SK-MEL-2 > 100 µM | TK-10 > 100 µM

O=C(Cc1ccccc1)NN1C(=O)C(Cl)C1c1cccc([N+](=O)[O-])c1 (stereo not given)
inactive: 786-0 12.3 µM | A498 > 100 µM | COLO 205 > 100 µM | HCT-116 23.4 µM | HL-60 10.4 µM | HOP-62 > 100 µM | LOX IMVI 5.31 µM | M14 46.7 µM | MOLT-4 12.4 µM | NCI-H226 > 42.9 µM | NCI-H460 35.2 µM | SF-295 > 100 µM | SK-MEL-28 > 92.9 µM | SK-MEL-2 31.7 µM | TK-10 > 100 µM
58.5 µM: HCT-15

Cc1cccc2c1NC(c1c(C)[nH]c3ccccc13)C2 (stereo not given)
> 100 µM: HCT-15
inactive: 786-0 > 100 µM | A498 > 100 µM | COLO 205 56 µM | HCT-116 > 100 µM | HL-60 50.1 µM | HOP-62 > 100 µM | LOX IMVI 80 µM | M14 78.7 µM | MOLT-4 63 µM | NCI-H226 80.5 µM | NCI-H460 > 100 µM | SF-295 54.8 µM | SK-MEL-28 > 100 µM | SK-MEL-2 > 100 µM | TK-10 > 100 µM

CC(C)(C)C(=O)CC(=O)C(C)(C)C.CC(C)(C)C(=O)CC(=O)C(C)(C)C.[SiH4]
inactive: 786-0 2.69 µM | A498 2.81 µM | COLO 205 1.46 µM | HCT-116 1.26 µM | HOP-62 2.33 µM | M14 2.18 µM | MOLT-4 2.11 µM | SK-MEL-28 3.15 µM | TK-10 3.4 µM
active: NCI-H226 0.0428 µM | SF-295 1.01 µM

Cc1ccc(N(C(=O)CC(=O)N2N=C(c3ccccc3)C(/N=N/c3ccc([N+](=O)[O-])cc3)C2=O)C(=O)c2ccc(Cl)cc2)cc1 (stereo not given)
13.2 µM: HCT-15
inactive: 786-0 14.4 µM | A498 6.14 µM | COLO 205 5.31 µM | HCT-116 8.59 µM | HL-60 19.2 µM | HOP-62 10.3 µM | LOX IMVI 3.7 µM | M14 5.69 µM | MOLT-4 > 42.1 µM | NCI-H226 20.7 µM | NCI-H460 19 µM | SF-295 9.2 µM | SK-MEL-28 48.5 µM | SK-MEL-2 > 38.8 µM | TK-10 10.9 µM
